Data set [1] has as its target human Kv3.1 channels (hKv3.1) (Homo sapiens, UniProt P48547). The data set is described as follows: cell-based. The data set is classed as cell-based. The conditions noted are these: for Kv3.1 pEC50: HEK-hKv3.1 cells, -15 mV voltage step, normalised to 50 microM reference compound; for Kv3.1 max R %: maximum response relative to reference compound (50 microM). From the text:
The ability of the compounds of the invention to modulate the voltage-gated potassium channel subtypes Kv3.3/Kv3.2/Kv3.1 may be determined using the following assay. Analogous methods may be used to investigate the ability of the compounds of the invention to modulate other channel subtypes.
To assess compound effects on human Kv3.1 channels (hKv3.1):
Human embryonic kidney (HEK)-hKv3.1 cell line is generated by transfecting HEK-293 cells with an expression vector with human Kv3.1 (NM_004976.4). Cells are cultured with MEM supplemented with 10% Heat-Inactivated FBS, 2 mM L-glutamine, 1% Penicillin-Streptomycin, and 0.6 mg/ml of Geneticin (G418). HEK-hKv3.1b cells were amplified in T175 cm2 flask at 37° C. with 5% CO2, using MEM amplification medium, containing the G418 selection antibiotic (0.6 mg/ml). Cells were detached every 3-4 days, using DPBS to wash twice the flask, then TrypLE to dislodge the cells, and re-plated at a density of 2-4×10^6 cells/flask.
The day of the experiment, cells are removed from the incubator and the culture medium removed. Cells are washed with 5 ml of Dulbecco's PBS (DPBS) calcium and magnesium free and detached by the addition of 3 ml Versene (Invitrogen, Italy) followed by a brief incubation at 37° C. for 5 minutes. The flask is tapped to dislodge cells and 10 ml of DPBS containing calcium and magnesium is added to prepare a cell suspension. The cell suspension is then placed into a 15 ml centrifuge tube and centrifuged for 2 min at 1200 rpm. After centrifugation, the supernatant is removed and the cell pellet re-suspended in 4 ml of DPBS containing calcium and magnesium using a 5 ml pipette to break up the pellet. Cell suspension volume is then corrected to give a cell concentration for the assay of approximately 3 million cells per ml.
Experiments are conducted at r.t. using IonWorks Quattro™ planar array electrophysiology technology (Molecular Devices Corp.) with PatchPlate™ PPC. Stimulation protocols and data acquisition are carried out using a microcomputer (Dell Pentium 4). Planar electrode hole resistances (Rp) are determined by applying a 10 mV voltage step across each well. These measurements are performed before cell addition. After cell addition and seal formation, a seal test is performed by applying a voltage step from −80 mV to −70 mV for 160 ms. Following this, amphotericin-B solution is added to the intracellular face of the electrode to achieve intracellular access. Cells are held at −70 mV. Leak subtraction is conducted in all experiments by applying 50 ms hyperpolarizing (10 mV) prepulses to evoke leak currents followed by a 20 ms period at the holding potential before test pulses.
For hKv3.2 and hKv3.1, assays from the holding potential of −70 mV, a first test pulse at −15 mV was applied for 100 ms and after 100 ms at −70 mV a second pulse at +40 mV was applied for 50 ms. Cells were then maintained for 100 ms at −100 mV and another pulse from −70 mV to +40 mV (duration 50 ms) was applied to clamp later the voltage at −40 mV during 200 ms
The intracellular solution contains the following (in mM): K-gluconate 100, KCl 54, MgCl2 3.2, HEPES 5, adjusted to pH 7.3 with KOH. Amphotericin-B solution is prepared as 50 mg/ml stock solution in DMSO and diluted to a final working concentration of 0.1 mg/ml in intracellular solution. The external solution is Dulbecco's Phosphate Buffered Saline (DPBS) and contained the following (in mM): CaCl2 0.90, KCl 2.67, KH2PO4 1.47, MgCl·6H2O 0.493, NaCl 136.9, Na3PO4 8.06, with a pH of 7.4.
Compounds of use in the invention (or reference compounds such as N-cyclohexyl-N-[(7,8-dimethyl-2-oxo-1,2-dihydro-3-quinolinyl)methyl]-N-phenylurea) are dissolved in dimethylsulfoxide (DMSO) at a stock concentration of 10 mM. These solutions are further diluted with DMSO using a Biomek FX (Beckman Coulter) in a 384 compound plate. Each dilution (1 μL) is transferred to another compound plate and external solution containing 0.05% pluronic acid (66 μL) is added. […]

A short description of data set [2]: Determination of brain tissue binding (equilibrium dialysis). The data set is classed as in vitro ADME. The conditions noted are these: Sprague Dawley, rat whole brain homogenate, 5 h at 37° C. As to the method: Sprague Dawley rat whole blood, collected on the week of the experiment using K3-EDTA as an anti-coagulant, is diluted with isotonic phosphate buffer 1:1 (v/v). Sprague Dawley rat whole brain, stored frozen at −20° C., is thawed and homogenised in artificial cerebrospinal fluid (CSF) 1:2 (w/v).
An appropriate amount of test compound is dissolved in DMSO to give a 10 millimolar solution. Further dilutions, to obtain a 166.7 micromolar working solution are then prepared using 50% acetonitrile in MilliQ water. This working solution is used to spike the blood to obtain a final concentration of 0.5 micromolar in whole blood. Similarly, the working solution is used to spike brain samples to obtain a final concentration of 5 micromolar in whole brain. From these spiked blood and brain preparations, control samples (n=3), are immediately extracted and used to calculate the initial recovery of the test items.
150 microL of compound-free buffer (isotonic phosphate buffer for blood or artificial CSF buffer for brain) is dispensed in one half-well and 150 microL of spiked matrix (blood or brain) is loaded in the other half-well, with the two halves separated by a semi-permeable membrane. After an equilibration period of 5 h at 37° C., 50 microL of dialysed matrix (blood or brain) is added to 50 microL of corresponding compound-free buffer, and vice-versa for buffer, such that the volume of buffer to matrix (blood or brain) remains the same. Samples are then extracted by protein precipitation with 300 microL of acetonitrile containing rolipram (control for positive ionization mode) or diclofenac (control for negative ionization mode) as internal standards and centrifuged for 10 min at 3000 rpm. Supernatants are collected (100 microL), diluted with 27% AcN in MilliQ water (200 microL) and then injected into an HPLC-MS/MS or UPLC-MS/MS system to determine the concentration of test compound present.
Blood and brain tissue binding are then determined using the following formulas: Afu=Buffer/Blood or Afu=CSF/Brain
Where Afu=apparent fraction unbound; Buffer=analyte/internal standard ratio determined in the buffer compartment; Blood=analyte/internal standard ratio determined in the blood compartment; Brain=analyte/internal standard ratio determined in the brain compartment.
[formula] where: fucr=Fraction unbound corrected; D=matrix dilution factor (D=2 for blood and D=3 for brain).
Then: % Binding=(1−fucr)×100 % Unbound=100−% Bound Brain/Blood Partition Ratio (Kbb) Determination
A general note: In equilibrium dialysis only unbound substance equilibrates across the membrane.

Structures are written as SMILES.

In the case of `CC1(C)NC(=O)N(c2cnc(Oc3cccc4c3C(C)(C)CO4)cn2)C1=O` [Example 2, 3-[5-[(3,3-dimethyl-2H-benzofuran-4-yl)oxy]pyrazin-2-yl]-5,5-dimethyl-imidazolidine-2,4-dione], in data set [1], the “Kv3.1 pEC50” value came out at 4.68 and the “Kv3.1 max R %” value was found to be 149%.
For the compound `CC[C@@]1(C)NC(=O)N(c2cnc(Oc3cccc4c3C3(CC3)CO4)cn2)C1=O` [Example 3, (5R)-5-ethyl-5-methyl-3-(5-spiro[2H-benzofuran-3,1′-cyclopropane]-4-yloxypyrazin-2-yl)imidazolidine-2,4-dione], in data set [1], the “Kv3.1 pEC50” value stood at 5.15 and the “Kv3.1 max R %” value came out at 205%.
Consider `CC1(C)NC(=O)N(c2cnc(Oc3cccc4c3C3(CC3)CO4)cn2)C1=O` [Example 4, 5,5-dimethyl-3-(5-spiro[2H-benzofuran-3,1′-cyclopropane]-4-yloxypyrazin-2-yl)imidazolidine-2,4-dione], for which, in data set [1], the “Kv3.1 pEC50” value turned out to be 5.17 and the “Kv3.1 max R %” value is given as 170%.
`CC[C@@]1(C)NC(=O)N(c2cnc(Oc3ccc(C)c4c3C3(CC3)CO4)cn2)C1=O` [Example 5, (5R)-5-ethyl-5-methyl-3-[5-(7-methylspiro[2H-benzofuran-3,1′-cyclopropane]-4-yl)oxypyrazin-2-yl]imidazolidine-2,4-dione]: in data set [1], the “Kv3.1 pEC50” value worked out at 5.69 and the “Kv3.1 max R %” value is 149%.
`CC[C@@]1(C)NC(=O)N(c2cnc(Oc3cccc4c3C(C)(C)CO4)cn2)C1=O` [Example 6, (5R)-3-[5-[(3,3-dimethyl-2H-benzofuran-4-yl)oxy]pyrazin-2-yl]-5-ethyl-5-methyl-imidazolidine-2,4-dione]: in data set [1], the “Kv3.1 pEC50” value turned out to be 4.75 and the “Kv3.1 max R %” value is recorded as 165%.
Turning to `Cc1ccc(Oc2cnc(N3C(=O)NC(C)(C)C3=O)cn2)c2c1OCC2(C)C` [Example 7, 5,5-dimethyl-3-[5-[(3,3,7-trimethyl-2H-benzofuran-4-yl)oxy]pyrazin-2-yl]imidazolidine-2,4-dione], in data set [1], the “Kv3.1 pEC50” value came to 5.12 and the “Kv3.1 max R %” value worked out at 134%.
For the compound `CC[C@@]1(C)NC(=O)N(c2cnc(Oc3ccc(C)c4c3C(C)(C)CO4)cn2)C1=O` [Example 8, (5R)-5-ethyl-5-methyl-3-[5-[(3,3,7-trimethyl-2H-benzofuran-4-yl)oxy]pyrazin-2-yl]imidazolidine-2,4-dione], in data set [1], the “Kv3.1 pEC50” value came to 5.29 and the “Kv3.1 max R %” value was 119%.
On to `CC[C@H]1NC(=O)N(c2cnc(Oc3cccc4c3C(C)(C)CO4)cn2)C1=O` [Example 11, (5R)-3-[5-[(3,3-dimethyl-2H-benzofuran-4-yl)oxy]pyrazin-2-yl]-5-ethyl-imidazolidine-2,4-dione], for which, in data set [1], the “Kv3.1 pEC50” value is given as 4.89 and the “Kv3.1 max R %” value was determined as 165%.
The corresponding values for `CC[C@H]1NC(=O)N(c2cnc(Oc3ccc(C)c4c3C(C)(C)CO4)cn2)C1=O` [Example 12, (5R)-5-ethyl-3-[5-[(3,3,7-trimethyl-2H-benzofuran-4-yl)oxy]pyrazin-2-yl]imidazolidine-2,4-dione] are 5.56 and 118%.
For the compound `Cc1ccc(Oc2cnc(N3C(=O)NC4(CCC4)C3=O)cn2)c2c1OCC21CC1` [Example 13, 7-[5-(7-methylspiro[2H-benzofuran-3,1′-cyclopropane]-4-yl)oxypyrazin-2-yl]-5,7-diazaspiro[3.4]octane-6,8-dione], in data set [1], the “Kv3.1 pEC50” value worked out at 5.09 and the “Kv3.1 max R %” value was 165%.
The corresponding values for `Cc1ccc(Oc2cnc(N3C(=O)NC4(CC4)C3=O)cn2)c2c1OCC21CC1` [Example 14, 6-[5-(7-methylspiro[2H-benzofuran-3,1′-cyclopropane]-4-yl)oxypyrazin-2-yl]-4,6-diazaspiro[2.4]heptane-5,7-dione] are 5.51 and 145%.
Turning to `Cc1ccc(Oc2ncc(N3C(=O)NC(C)(C)C3=O)cn2)cc1OC(F)(F)F` [RE1, reference compound], in data set [1], the “Kv3.1 pEC50” value stood at 4.78 and the “Kv3.1 max R %” value is on record as 105%.
As for `Cc1ccc(Oc2ccc(N3C(=O)NC(C)(C)C3=O)cn2)cc1OC(F)(F)F` [RE2, reference compound], in data set [1], the “Kv3.1 pEC50” value came to 5.25 and the “Kv3.1 max R %” value is 118%.
The corresponding values for `Cc1ccc(Oc2ccc(N3C(=O)NC(C)(C)C3=O)nc2)cc1OC(F)(F)F` [RE3, reference compound] are 4.89 and 79%.
The corresponding values for `Cc1ccc(Oc2cnc(N3C(=O)NC(C)(C)C3=O)cn2)cc1OC(F)(F)F` [RE4, reference compound] are <4.3 and 24%.
The fraction unbound is the share of the substance not bound to proteins or other matrix. Higher therefore signals weak binding. As to `Cc1ccc(Oc2ccc(N3C(=O)NC(C)(C)C3=O)nc2)c2c1OCC21CC1` [RE7, reference compound], in data set [1], the “Kv3.1 pEC50” value turned out to be 5.56 and the “Kv3.1 max R %” value amounted to 130%. The compound also showed a fraction unbound at 5 h, 5 micromolar in data set [2] of 0.023.
Consider `Cc1ccc(Oc2cnc(N3C(=O)NC(C)(C)C3=O)nc2)c2c1OCC21CC1` [RE8, reference compound], for which, in data set [1], the “Kv3.1 pEC50” value is listed as 4.98 and the “Kv3.1 max R %” value amounted to 42%.
In the case of `Cc1ccc(Oc2ccc(N3C(=O)NC(C)(C)C3=O)nn2)c2c1OCC21CC1` [RE9, reference compound], in data set [1], the “Kv3.1 pEC50” value was <4.3 and the “Kv3.1 max R %” value came to 16%.
For the compound `Cc1ccc(Oc2cncc(N3C(=O)NC(C)(C)C3=O)n2)c2c1OCC21CC1` [RE10, reference compound], in data set [1], the “pEC50 and maxR in the Kv3.1 assay (in words)” value was “greatly reduced pEC50 and maxR”; the “Kv3.1 pEC50” value is listed as <4.3; the “Kv3.1 max R %” value turned out to be 22%.
Consider `CC[C@H]1NC(=O)N(c2ccc(Oc3ccc(C)c4c3C3(CC3)CO4)cn2)C1=O` [RE12, reference compound], for which, in data set [1], the “Kv3.1 pEC50” value is reported as 5.6 and the “Kv3.1 max R %” value stood at 149%. Also, in data set [2], the fraction unbound at 5 h, 5 micromolar is 0.019.

The record behind these values is US12358901B2, “KV3 modulators” (priority 2018, dated 2025).
